From article PMC5790609 (Journal of neuroimmune pharmacology : the official journal …, 2017)

What was measured:
[1] = tested on: TSPO (C/T rs6971 genotype); experiment: [3H]-DPA-713 dissociation kinetics, platelet lysates, C/T genotype; type: binding, human; settings: for effect on rate of dissociation of [3H]-DPA-713 vs. excess DPA-713: PK11195 5 μM, cholesterol 1.2 μM
[2] = target: TSPO (C/C rs6971 genotype) (Homo sapiens, UniProt P30536); experiment: [3H]-DPA-713 dissociation kinetics, platelet lysates, C/C genotype; type: binding; settings: PK11195 5 μM, cholesterol 1.2 μM
TSPO (C/C rs6971 genotype), sequence (P30536 whole entry): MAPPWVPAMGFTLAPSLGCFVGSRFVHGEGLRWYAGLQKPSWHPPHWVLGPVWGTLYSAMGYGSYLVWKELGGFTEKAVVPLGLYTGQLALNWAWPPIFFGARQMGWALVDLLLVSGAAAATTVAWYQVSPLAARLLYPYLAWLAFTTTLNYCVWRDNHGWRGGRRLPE

[3] = ref Vivash and O'Brien 2016; cited from earlier work
[4] = target: TSPO (T/T rs6971 genotype) (Homo sapiens, UniProt P30536); experiment: [3H]-DPA-713 dissociation kinetics, platelet lysates, T/T genotype; type: binding; settings: PK11195 5 μM, cholesterol 1.2 μM
TSPO (T/T rs6971 genotype), sequence (P30536 2-169): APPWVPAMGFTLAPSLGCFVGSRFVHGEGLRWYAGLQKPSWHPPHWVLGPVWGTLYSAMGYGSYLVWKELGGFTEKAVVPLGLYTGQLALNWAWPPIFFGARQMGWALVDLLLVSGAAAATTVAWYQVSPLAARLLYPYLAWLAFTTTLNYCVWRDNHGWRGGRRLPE

Compound	dissociation rates of [3H]-DPA-713 with 2 vs. 12 μM DPA-713 [1]	effect on rate of dissociation of [3H]-DPA-713 vs. excess DPA-713 [1]	effect on rate of dissociation of [3H]-DPA-713 vs. excess DPA-713 [2]	non-specific plasma protein binding [3]	effect on rate of dissociation of [3H]-DPA-713 vs. excess DPA-713 [4]
CCN(CC)C(=O)Cc1c(-c2ccc(OC)cc2)nn2c(C)cc(C)nc12 [DPA-713]	the same	–	–	–	–
CCC(C)N(C)C(=O)c1cc2ccccc2c(-c2ccccc2Cl)n1 (centres unmarked) [PK11195]	–	the same	the same	high	accelerated
CC(C)CCC[C@@H](C)[C@H]1CC[C@H]2[C@@H]3CC=C4C[C@@H](O)CC[C@]4(C)[C@H]3CC[C@]12C [cholesterol]	–	the same	the same	–	accelerated
